Test results reported in PubChem BioAssay AID743500 (The Scripps Research Institute Molecular Screening Center, 2014).
The source made the active and inactive calls. No rule for the calls is given here.

Tested on: CCHFV L protein vOTU protease domain (Crimean-Congo hemorrhagic fever virus)
Assay: CCHFV vOTU inhibition, late-stage follow-up, biochemical, fluorescence, Ub-AMC substrate, assay provider (AID 743500)
Details: Recombinant vOTU, Ub-AMC cleavage fluorescence, stronger effect = higher value

**Q.** With `NS(=O)(=O)c1ccc(NC(=O)COC(=O)c2ccc([N+](=O)[O-])s2)cc1` as the compound, how does the inhibition (at 29.01 µM) read?
**A.** 42.6%

**Q.** With `NS(=O)(=O)c1ccc(NC2=CC(=O)C(=O)c3ccccc32)cc1` as the compound, how does the inhibition (at 11.51 µM) read?
**A.** 71.8%

**Q.** For `O=C(NC1=CC(=O)c2ccccc2C1=O)c1ccccc1`, which inhibition (at 12.37 µM) is on record?
**A.** 48.8%

**Q.** `COC(CNC(=O)c1ccc2c3c(onc13)-c1ccccc1C2=O)OC` was tested. Which inhibition (at 24.19 µM) did it give?
**A.** 51.7%

**Q.** With `Nc1cc2c(cc1Br)[nH]c(=O)c1ccccc12` as the compound, how does the inhibition (at 4.57 µM) read?
**A.** 12.7% (inactive)

**Q.** How did the inhibition (at 26.04 µM) turn out when `O=C(OCc1nnc(-c2ccccc2)o1)c1ccc([N+](=O)[O-])s1` was run?
**A.** 55.6%

**Q.** How did the inhibition (at 18.9 µM) turn out when `Cc1ccc2c(c1C)-c1c(ccc(C)c1C)C(=O)C2=O` was run?
**A.** 66.2%

**Q.** With `O=C1Cc2ccccc2C(=O)N1Cc1ccccc1` as the compound, how does the inhibition (at 1.31 µM) read?
**A.** 49.6%

**Q.** How did the inhibition (at 1.16 µM) turn out when `Cn1nc(-c2ccccn2)nc2c(=O)n(C)c(=O)nc1-2` was run?
**A.** 94%

**Q.** Which inhibition (at 21.72 µM) does the source give for `COc1cc(NC(=O)COC(=O)c2ccc([N+](=O)[O-])s2)cc(OC)c1OC` here?
**A.** 44.2%

**Q.** `O=C1C=C(Nc2ccccc2)c2ccccc2C1=O` was tested. Which inhibition (at 15.55 µM) did it give?
**A.** 80.2%

**Q.** For `COC1=C(N)C(=O)c2nc(C)ccc2C1=O`, which inhibition (at 4.98 µM) is on record?
**A.** 71.9%

**Q.** `Cc1ccc(N2C(=O)[C@@H]3[C@H](C2=O)C2c4ccccc4C=CN2[C@@H]3C(=O)c2ccco2)cc1` (stereo partly drawn) was tested. Which inhibition (at 5.2 µM) did it give?
**A.** 41.3%

**Q.** How did the inhibition (at 10.17 µM) turn out when `O=C(/C=C/c1ccc(O)cc1)c1ccc(NC2=C(N3CCCCC3)C(=O)c3ccccc3C2=O)cc1` was run?
**A.** 41%

**Q.** `O=C(COC(=O)c1ccc([N+](=O)[O-])s1)Nc1ncc(C(F)(F)F)cc1Cl` was tested. Which inhibition (at 27.79 µM) did it give?
**A.** 42.1%

**Q.** Which inhibition (at 0.39 µM) does the source give for `NC1=C(Cl)C(=O)c2ccc(S(N)(=O)=O)cc2C1=O` here?
**A.** 63.1%

**Q.** `O=C(c1ccco1)[C@@H]1[C@@H]2C(=O)N(c3ccc(Br)cc3)C(=O)[C@@H]2C2c3ccccc3C=CN21` (stereo partly drawn) was tested. Which inhibition (at 11.01 µM) did it give?
**A.** 79.7%

**Q.** Which inhibition (at 20.44 µM) does the source give for `Cc1c(Cl)cnc(NC(=O)COC(=O)c2ccc([N+](=O)[O-])s2)c1Cl` here?
**A.** 55.3%

**Q.** With `O=C(NC1=C(NC2CCS(=O)(=O)C2)C(=O)c2ccccc2C1=O)c1ccccc1` (stereo not drawn) as the compound, how does the inhibition (at 14.2 µM) read?
**A.** 49.8%

**Q.** With `CC1(C)C=C2C(=NN(c3ccccc3)C(N)=C2C#N)CO1` as the compound, how does the inhibition (at 23.49 µM) read?
**A.** 82.1%

**Q.** Which inhibition (at 14.67 µM) does the source give for `CC1COCC(C)N1C1=C(Cl)C(=O)c2ccccc2C1=O` (stereo not drawn) here?
**A.** 23.4%

**Q.** `Cc1ccc(NC2=CC(=O)C(=O)c3ccccc32)cc1` was tested. Which inhibition (at 12.24 µM) did it give?
**A.** 85.2%

**Q.** With `O=C(COC(=O)c1ccc([N+](=O)[O-])s1)NCc1ccc(F)cc1` as the compound, how does the inhibition (at 40.58 µM) read?
**A.** 41%

**Q.** `COc1cc(Br)c(C(=O)c2nccc3cc(OC)c(OC)cc23)cc1OC` was tested. Which inhibition (at 1.13 µM) did it give?
**A.** 19.1% (inactive)

**Q.** With `CCc1cc[n+](C2=C(NS(=O)(=O)c3cccs3)C(=O)c3ccccc3C2=O)cc1` as the compound, how does the inhibition (at 14.16 µM) read?
**A.** 18.8% (inactive)

**Q.** Which inhibition (at 31.32 µM) does the source give for `CC1CCCC(NC(=O)COC(=O)c2ccc([N+](=O)[O-])s2)C1C` (stereo not drawn) here?
**A.** 22.6%

**Q.** For `CCn1nc(/C=C/c2ccccc2)nc2c(=O)n(C)c(=O)nc1-2`, which inhibition (at 0.49 µM) is on record?
**A.** 99%

**Q.** Which inhibition (at 26.34 µM) does the source give for `O=C(COC(=O)c1ccc([N+](=O)[O-])s1)Nc1ccc(F)cc1` here?
**A.** 45.3%

**Q.** Which inhibition (at 0.6 µM) does the source give for `O=C1Cc2ccccc2C(=O)N1` here?
**A.** 57.1%

**Q.** How did the inhibition (at 7.75 µM) turn out when `CCOC(=O)N=Nc1c2ccccc2c2nc3no[nH]c3nc12` was run?
**A.** 26.4%

**Q.** Which inhibition (at 6.28 µM) does the source give for `COc1ccc2noc3c2c1C(=O)c1ccccc1-3` here?
**A.** 12.4% (inactive)

**Q.** Which inhibition (at 1.45 µM) does the source give for `O=c1[nH]c(Nc2ccccc2)cc2cc(Br)ccc12` here?
**A.** 15.8% (inactive)

**Q.** Which inhibition (at 35.07 µM) does the source give for `COc1ccccc1NC(=O)COC(=O)c1ccc([N+](=O)[O-])s1` here?
**A.** 53.8%
